Data from US7592353B2, “Substituted 3-amino-thieno[2,3-b]pyridine-2-carboxylic acid amide compounds and processes for preparing and their uses” (Boehringer Ingelheim International GmbH, priority 2006, dated 2009).

How the values were obtained:
[1] = target: T1, human IKKβ (Homo sapiens, UniProt O14920); experiment: Molecular assay IKKb: phosphorylation of IκBα substrate by IKKβ; assay type: biochemical
T1 construct: FLAG (N)
T1 sequence (O14920 1-756): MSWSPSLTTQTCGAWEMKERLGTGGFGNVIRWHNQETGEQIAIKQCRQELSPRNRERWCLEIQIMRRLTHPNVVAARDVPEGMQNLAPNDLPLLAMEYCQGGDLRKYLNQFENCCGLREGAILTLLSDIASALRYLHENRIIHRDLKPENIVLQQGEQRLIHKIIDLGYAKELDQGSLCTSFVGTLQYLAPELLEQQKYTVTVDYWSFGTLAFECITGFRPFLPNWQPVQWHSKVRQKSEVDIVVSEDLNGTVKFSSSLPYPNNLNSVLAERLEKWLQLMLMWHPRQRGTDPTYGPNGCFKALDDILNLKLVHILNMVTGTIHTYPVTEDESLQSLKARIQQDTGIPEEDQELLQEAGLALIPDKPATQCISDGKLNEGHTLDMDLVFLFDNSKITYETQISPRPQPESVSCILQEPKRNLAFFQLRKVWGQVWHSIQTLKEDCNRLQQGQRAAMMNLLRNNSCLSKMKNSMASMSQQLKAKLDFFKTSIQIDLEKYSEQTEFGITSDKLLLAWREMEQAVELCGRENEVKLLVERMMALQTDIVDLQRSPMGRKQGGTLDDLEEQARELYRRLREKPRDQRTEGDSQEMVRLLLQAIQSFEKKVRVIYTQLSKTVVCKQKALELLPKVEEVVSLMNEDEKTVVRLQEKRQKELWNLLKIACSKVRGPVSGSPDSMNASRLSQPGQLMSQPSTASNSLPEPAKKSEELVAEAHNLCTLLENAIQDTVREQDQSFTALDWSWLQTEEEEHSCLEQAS
Protocol: The inhibition of IKKα and IKKβ by the compounds of the present invention can be determined with the following assay that measures the phosphorylation of the IκBα substrate by the respective kinases. The enzymes used in the assay were N-terminally flag-tagged versions of the human IKKβ or IKKα and the substrate was a GST fusion protein with IκBα (amino acids 1-54).
The reaction mixtures (60 μl) contained 20 mM HEPES pH 7.5, 10 mM MgCl2, 2 mM MnCl2, 100 mM NaCl, 100 μM Na3VO4, 20 mM β-glycerophosphate, 1 mM DTT, 2% DMSO, 250 nM ATP, 0.4 nM [^33P]ATP (specific activity, 3000 Ci/mmol), IκBα substrate, IKK enzyme and test compound. The reaction mixtures contained either 3.6 μg/ml IKKα and 245 μg/ml IκBα or 0.9 μg/ml IKKβ and 53 μg/ml IκBα.
Reactions were initiated by adding a solution of IκBα substrate and ATP to polypropylene plates containing IKK enzyme that was pre-incubated for 5 minutes with test compound. Then the reaction mixtures were incubated for 1 hour at 25° C., placed on ice and quenched by the addition of 150 μl 10% trichloroacetic acid and 5% disodium pyrophosphate. After mixing, the entire contents of the quenched reaction mixtures were transferred to a pre-wetted Packard UniFilter filtration plate, aspirated and washed 6 times with 250 μl of ddH2O using the Packard Filtermate Harvester. Filtration plates were then air dried, supplemented with 40 μl of Microscint 20 scintillation fluid and the ^33P-labeled reaction products were quantified using the Packard TopCount scintillation counter.
Compounds were tested in three-fold serial dilutions and inhibitor concentrations to achieve 50% inhibition of enzyme activity (i.e., IC50) were derived from dose-response curves using SAS software (SAS Institute, Cary N.C.). A non-linear regression analysis based on the Hill equation was applied to the percent inhibition versus concentration data. In all cases, compound concentrations were verified by HPLC.

[2] = test system: ICAM-1 Expression on HeLa Cells; experiment: Cell assay HeLa: ELISA of TNFα-stimulated ICAM-1 expression on HeLa cells; assay type: cell-based; details: for IC50: Homo sapiens, HeLa cells, TNFα stimulation, ICAM-1 expression; for cellular potency relative to the —CF3 group of compound 101: comparison in words, Table II
Protocol: HeLa cells are seeded on 96 well tissue culture treated plates (Costar) in complete medium comprised of 10% decomplemented fetal bovine serum in RPMI1640 with gentamycin and L-glutamine and grown overnight to confluence. The following day, the media is changed and the wells are treated with test compounds. 10 mM DMSO stock solutions of compounds are serially diluted with 0.1% DMSO (final concentration)-screening media to 5 final concentrations (starting at 10 μM). Compounds are pre-incubated with cells for 30 min followed by stimulation with TNFα (R&D Systems) for 5-6 hr. The adherent cells are then assayed for expression of intercellular adhesion molecule-1 (ICAM-1). Monolayers are washed three times with D-PBS (Gibco) and fixed for 10 min at room temperature with 1% paraformaldehyde (Polysciences, Inc) diluted in D-PBS. After washing to remove fixative, the monolayers are blocked with 2% BSA-D-PBS overnight at 4° C. 100 μL of anti-ICAM-1 mAB RR1-HRP (diluted 1:5000 in 2% BSA-DPBS; Zymed custom conjugate of BIPI mAB) is added for 1 hr at 37° C. Wells are washed three times with D-PBS. 100 μL of ABTS substrate diluted in substrate buffer (Zymed) is added to each well. Optical absorbance is measured at 405 nm in a Thermomax microplate reader ([…]). Data is plotted as percent of control and IC50s are determined using xlfit 4 model # 201.

[3] = Rat oral exposure (plasma exposure upon oral administration); assay type: in vivo; details: for concentration at 2 h / concentration at 6 h / concentration at 10 h: plasma, rat, oral, 10 mg/kg; for concentration at 2 h: read-out: Rat oral exposure (μM) @ 10 mg/kg dose 2h; for concentration at 6 h: read-out: Rat oral exposure (μM) @ 10 mg/kg dose 6h; for concentration at 10 h: read-out: Rat oral exposure (μM) @ 10 mg/kg dose 10h
[4] = test system: established type II collagen arthritis in rats; experiment: Rat CIA model (7 day rat established type II collagen arthritis); assay type: in vivo
Text: Effects of Compounds in 7 Day Rat Established Type II Collagen Arthritis
Purpose: To determine the dose responsive efficacy of compounds administered by oral gavage dosing bid in inhibiting the inflammation, cartilage destruction and bone resorption of established type II collagen arthritis in rats. The terminal pharmacokinetic component is included.
Animals: 36 (Order 42) Female Lewis rats (Harlan, 1173000), weighing 125-150 g on arrival. Extras are used because animals with arthritis are selected and there is not 100% incidence of disease in this model in the short time frame for enrollment (inject 42 with collagen to get […] solid responders on days 10, 11 for 4 groups of 8. Four rats are used to serve as normal controls.
Materials: Agents or drugs in vehicle (Cremaphor), Type II collagen, Freund's incomplete adjuvant.
General Study Design: Animals (8/group for arthritis, 4/group for normal control), housed 4/cage, are acclimated for 4-8 days.
Acclimated animals are anesthetized with Isoflurane and given collagen injections (day 0). […]
Statistical analysis of body/paw weights and paw AUC and histopathology parameters are evaluated using a one-way analysis of variance (ANOVA). […]
Percent inhibition of paw weight and AUC is calculated using the following formula: % Inhibition=A−B/A×100 A=Mean Disease Control−Mean Normal B=Mean Treated−Mean Normal

| SMILES | IC50 [1] | IC50 [2] | concentration at 2 h [3] | concentration at 6 h [3] | concentration at 10 h [3] | cellular potency relative to the —CF3 group of compound 101 [2] | oral activity in a rat model of collagen induced arthritis ([4]; comparison in words, Table III) | Inhibition of paw weight increase ([4]; rat CIA, oral, 10 mg/kg BID) | level of sustained plasma exposure upon oral administration to rat, versus Compound 100 ([3]; comparison in words, Table II) |
| --- | --- | --- | --- | --- | --- | --- | --- | --- | --- |
| CS(=O)(=O)C1CCN(c2cc(C(F)(F)F)c3c(N)c(C(N)=O)sc3n2)CC1 [Compound 101] | 120 nM | 3200 nM |  |  |  |  |  |  |  |
| CCCc1cc(N2CCC(S(C)(=O)=O)CC2)nc2sc(C(N)=O)c(N)c12 [Compound 100, reference compound] | 78 nM | 720 nM | 0.21 µM | 0.12 µM | 0.08 µM | improved cellular potency |  |  |  |
| CCC(F)(F)c1cc(N2CCC(S(C)(=O)=O)CC2)nc2sc(C(N)=O)c(N)c12 [Compound 115, 3-Amino-4-(1,1-difluoro-propyl)-6-(4-methanesulfonyl-piperidin-1-yl)-thieno[2,3-b]pyridine-2-carboxylic acid amide] | 26 nM | 700 nM | 1.59 µM | 0.78 µM | 0.65 µM | improved cellular potency | superior oral activity | 44% | improved level of sustained plasma exposure |
